# Results: patent US6737383B1, “Herbicidal oxadiazolidines” (priority 1999, dated 2004)
# Tests used:
# [1] = test system: bamyardgrass; test: Test B flood test barnyardgrass; type: in vivo, Echinochloa crus-galli
# In short: (§1)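 Flood test on plants grown to the 2-leaf stage; treated plants kept in greenhouse twelve to sixteen days, then visually rated against controls on a 0 (no effect) to 10 (complete control) scale.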
# [2] = test system: rape; test: Test B pre/postemergence rape; type: in vivo, Brassica napus
# In short: (§2)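 Herbicidal effect was estimated by eye on a ten-point control scale after plants spent twelve to sixteen days in a greenhouse following soil or foliar treatment. Foliar sprays targeted plants at one to four leaves; all doses were formulated in a non-phytotoxic solvent with surfactant.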
# [3] = test system: crabgrass; test: Test B pre/postemergence crabgrass; type: in vivo, Digitaria sanguinalis
# In short: as §2
# [4] = test system: pigweed; test: Test B pre/postemergence pigweed; type: in vivo, Amaranthus retroflexus
# In short: as §2
# [5] = test system: corn; test: Test B pre/postemergence corn; type: in vivo, Zea mays
# In short: as §2
# [6] = test system: bedstraw; test: Test B pre/postemergence bedstraw; type: in vivo, Galium aparine
# In short: as §2
# [7] = test system: morningglory; test: Test B pre/postemergence morningglory; type: in vivo, Ipomoea hederacea
# In short: as §2
# [8] = test system: soybean; test: Test B pre/postemergence soybean; type: in vivo, Glycine max
# In short: as §2
# [9] = test system: sugar beet; test: Test B pre/postemergence sugar beet; type: in vivo, Beta vulgaris
# In short: as §2
# [10] = test system: velvetleaf; test: Test B pre/postemergence velvetleaf; type: in vivo, Abutilon theophrasti
# In short: as §2
# [11] = test system: duck salad; test: Test B flood test duck salad; type: in vivo, Heteranthera limosa
# In short: as §1
# [12] = test system: surinam grass; test: Test B pre/postemergence surinam grass; type: in vivo, Brachiaria decumbens
# In short: as §2
# [13] = test system: smallflower flatsedge; test: Test B flood test smallflower flatsedge; type: in vivo, Cyperus difformis
# In short: as §1
# [14] = test system: wild oat; test: Test B pre/postemergence wild oat; type: in vivo, Avena fatua
# In short: as §2
# [15] = test system: cocklebur; test: Test B pre/postemergence cocklebur; type: in vivo, Xanthium strumarium
# In short: as §2
# [16] = test system: rice; test: Test B flood test rice; type: in vivo, Oryza sativa
# In short: as §1
# [17] = Postemergence, Rate 62 g/ha, scale 0 to 10, 0 is no effect, 10 is complete control
# [18] = Rate 125 g/ha, Postemergence section (flood test species), scale 0 to 10, 0 no effect, 10 complete control
# [19] = Rate 500 g/ha, Postemergence section of Table B, 0 to 10 scale (0 no effect, 10 complete control)
# [20] = flood test, listed under Postemergence, Rate 250 g/ha, scale 0 to 10, 0 no effect, 10 complete control
# [21] = Postemergence, Rate 250 g/ha, scale 0 to 10, 0 no effect, 10 complete control
# [22] = Preemergence, Rate 62 g/ha, scale 0 to 10, 0 is no effect, 10 is complete control
# [23] = Preemergence, Rate 125 g/ha, scale 0 to 10 (0 no effect, 10 complete control)
# [24] = Preemergence, Rate 500 g/ha, scale 0 (no effect) to 10 (complete control)
# [25] = Rate 125 g/ha, Postemergence, scale 0 to 10, 0 no effect, 10 complete control
# [26] = Rate 500 g/ha, Postemergence, 0 to 10 scale (0 no effect, 10 complete control)
# [27] = Preemergence, Rate 250 g/ha, scale of 0 to 10 where 0 is no effect and 10 is complete control
smiles,measurement,setting,value
CC(C)N(C(=O)n1oc(=O)n(-c2ccccc2)c1=O)c1ccc(F)cc1 [Compound 38],Barnyardgrass plant response rating,[1]; [17],0
same,Barnyardgrass plant response rating,[1]; [18],0
same,Barnyardgrass plant response rating,[1]; [19],0
same,Barnyardgrass plant response rating,[1]; [20],0
same,Rape plant response rating,[2]; [17],0
same,Rape plant response rating,[2]; [21],0
same,"Plant response rating, Rape",[2]; [22],0
same,"Plant response rating, Rape",[2]; [23],0
same,Rape plant response rating,[2]; [24],0
same,Rape plant response rating,[2]; [25],0
same,Rape plant response rating,[2]; [26],0
same,Crabgrass plant response rating,[3]; [17],0
same,Crabgrass plant response rating,[3]; [21],8
same,"Plant response rating, Crabgrass",[3]; [22],2
same,"Plant response rating, Crabgrass",[3]; [23],5
same,"Plant response rating, Crabgrass",[3]; [27],10
same,Crabgrass plant response rating,[3]; [24],10
same,Crabgrass plant response rating,[3]; [25],7
same,Crabgrass plant response rating,[3]; [26],9
same,Redroot pigweed plant response rating,[4]; [17],0
same,Redroot pigweed plant response rating,[4]; [21],0
same,"Plant response rating, Redroot pigweed",[4]; [22],2
same,"Plant response rating, Redroot pigweed",[4]; [23],10
same,"Plant response rating, Redroot pigweed",[4]; [27],10
same,Redroot pigweed plant response rating,[4]; [24],10
same,Redroot pigweed plant response rating,[4]; [25],0
same,Redroot pigweed plant response rating,[4]; [26],0
same,Corn plant response rating,[5]; [17],0
same,Corn plant response rating,[5]; [21],0
same,"Plant response rating, Corn",[5]; [22],0
same,"Plant response rating, Corn",[5]; [23],0
same,"Plant response rating, Corn",[5]; [27],0
same,Corn plant response rating,[5]; [24],0
same,Corn plant response rating,[5]; [25],0
same,Corn plant response rating,[5]; [26],0
same,Bedstraw plant response rating,[6]; [17],0
same,Bedstraw plant response rating,[6]; [21],0
same,"Plant response rating, Bedstraw",[6]; [22],0
same,"Plant response rating, Bedstraw",[6]; [23],0
same,"Plant response rating, Bedstraw",[6]; [27],0
same,Bedstraw plant response rating,[6]; [24],0
same,Bedstraw plant response rating,[6]; [25],0
same,Bedstraw plant response rating,[6]; [26],5
same,Morningglory plant response rating,[7]; [17],0
same,Morningglory plant response rating,[7]; [21],1
same,"Plant response rating, Morningglory",[7]; [22],0
same,"Plant response rating, Morningglory",[7]; [23],0
same,"Plant response rating, Morningglory",[7]; [27],0
same,Morningglory plant response rating,[7]; [24],0
same,Morningglory plant response rating,[7]; [25],0
same,Morningglory plant response rating,[7]; [26],10
same,Soybean plant response rating,[8]; [17],0
same,Soybean plant response rating,[8]; [21],0
same,"Plant response rating, Soybean",[8]; [22],0
same,"Plant response rating, Soybean",[8]; [23],0
same,"Plant response rating, Soybean",[8]; [27],0
same,Soybean plant response rating,[8]; [24],2
same,Soybean plant response rating,[8]; [25],0
same,Sugarbeets plant response rating,[9]; [17],0
same,Sugarbeets plant response rating,[9]; [21],0
same,"Plant response rating, Sugarbeets",[9]; [22],0
same,"Plant response rating, Sugarbeets",[9]; [23],0
same,"Plant response rating, Sugarbeets",[9]; [27],2
same,Sugarbeets plant response rating,[9]; [24],6
same,Sugarbeets plant response rating,[9]; [25],0
same,Velvetleaf plant response rating,[10]; [17],0
same,Velvetleaf plant response rating,[10]; [21],0
same,"Plant response rating, Velvetleaf",[10]; [22],0
same,"Plant response rating, Velvetleaf",[10]; [23],0
same,"Plant response rating, Velvetleaf",[10]; [27],0
same,Velvetleaf plant response rating,[10]; [24],0
same,Velvetleaf plant response rating,[10]; [25],0
same,Ducksalad plant response rating,[11]; [17],0
same,Ducksalad plant response rating,[11]; [19],0
same,Ducksalad plant response rating,[11]; [20],0
same,B. signalgrass plant response rating,[12]; [17],0
same,B. signalgrass plant response rating,[12]; [21],0
same,"Plant response rating, B. signalgrass",[12]; [22],3
same,"Plant response rating, B. signalgrass",[12]; [23],4
same,"Plant response rating, B. signalgrass",[12]; [27],8
same,B. signalgrass plant response rating,[12]; [24],8
same,B. signalgrass plant response rating,[12]; [25],0
same,B. signalgrass plant response rating,[12]; [26],0
same,S. Flatsedge plant response rating,[13]; [17],0
same,S. Flatsedge plant response rating,[13]; [18],0
same,S. Flatsedge plant response rating,[13]; [20],0
same,Wild oats plant response rating,[14]; [17],0
same,Wild oats plant response rating,[14]; [21],0
same,"Plant response rating, Wild oats",[14]; [23],6
same,"Plant response rating, Wild oats",[14]; [27],6
same,Wild oats plant response rating,[14]; [24],8
same,Wild oats plant response rating,[14]; [25],0
same,Cocklebur plant response rating,[15]; [17],0
same,Cocklebur plant response rating,[15]; [21],1
same,"Plant response rating, Cocklebur",[15]; [22],0
same,"Plant response rating, Cocklebur",[15]; [23],0
same,Cocklebur plant response rating,[15]; [24],0
same,Cocklebur plant response rating,[15]; [25],0
same,Cocklebur plant response rating,[15]; [26],1
same,Rice plant response rating,[16]; [17],0
same,Rice plant response rating,[16]; [18],0
same,Rice plant response rating,[16]; [19],0
same,Rice plant response rating,[16]; [20],0
